Assay results from patent publication US10214519B2, “Phosphatidylinositol 3-kinase inhibitors” (Gilead Sciences, Inc., priority 2016, dated 2019).

Molecular target: PI3Kβ (Homo sapiens (Human), UniProt P42338)
Assay: PI3K isoform TR-FRET enzymatic assay (PI3Kβ)
Format: biochemical
Details: 2× Km ATP, 30 minutes at 25° C.
Description: The compounds of formula (I) were characterized for their enzymatic activity against the PI3K isoforms. The activities were measured using a time-resolved fluorescence resonance energy transfer (TR-FRET) assay. TR-FRET monitored the formation of 3,4,5-inositol triphosphate molecule that competed with fluorescently labeled PIP3 for binding to the GRP-1 pleckstrin homology domain protein.
Class I PI3K isoforms were expressed and purified as heterodimeric recombinant proteins. All assay reagents and buffers for the TR-FRET assay were purchased from Millipore. […] The compounds were added to the assay solution and incubated for 30 minutes at 25° C. The reactions were terminated with a final concentration of 10 mM EDTA, 10 nM labeled-PIP3, and 35 nM Europium labeled GRP-1 detector protein before reading TR-FRET on an Envision plate reader (Ex: 340 nm; Em: 615/665 nm; 100 μs delay and 500 μs read window).
The results were normalized based on positive (1 μM wortmanin) and negative (DMSO) controls, and the IC50 values for PI3K α, β, δ, and γ were calculated from the fit of the dose-response curves to a four-parameter equation.

Chain of PI3Kβ (P42338 whole entry, canonical isoform): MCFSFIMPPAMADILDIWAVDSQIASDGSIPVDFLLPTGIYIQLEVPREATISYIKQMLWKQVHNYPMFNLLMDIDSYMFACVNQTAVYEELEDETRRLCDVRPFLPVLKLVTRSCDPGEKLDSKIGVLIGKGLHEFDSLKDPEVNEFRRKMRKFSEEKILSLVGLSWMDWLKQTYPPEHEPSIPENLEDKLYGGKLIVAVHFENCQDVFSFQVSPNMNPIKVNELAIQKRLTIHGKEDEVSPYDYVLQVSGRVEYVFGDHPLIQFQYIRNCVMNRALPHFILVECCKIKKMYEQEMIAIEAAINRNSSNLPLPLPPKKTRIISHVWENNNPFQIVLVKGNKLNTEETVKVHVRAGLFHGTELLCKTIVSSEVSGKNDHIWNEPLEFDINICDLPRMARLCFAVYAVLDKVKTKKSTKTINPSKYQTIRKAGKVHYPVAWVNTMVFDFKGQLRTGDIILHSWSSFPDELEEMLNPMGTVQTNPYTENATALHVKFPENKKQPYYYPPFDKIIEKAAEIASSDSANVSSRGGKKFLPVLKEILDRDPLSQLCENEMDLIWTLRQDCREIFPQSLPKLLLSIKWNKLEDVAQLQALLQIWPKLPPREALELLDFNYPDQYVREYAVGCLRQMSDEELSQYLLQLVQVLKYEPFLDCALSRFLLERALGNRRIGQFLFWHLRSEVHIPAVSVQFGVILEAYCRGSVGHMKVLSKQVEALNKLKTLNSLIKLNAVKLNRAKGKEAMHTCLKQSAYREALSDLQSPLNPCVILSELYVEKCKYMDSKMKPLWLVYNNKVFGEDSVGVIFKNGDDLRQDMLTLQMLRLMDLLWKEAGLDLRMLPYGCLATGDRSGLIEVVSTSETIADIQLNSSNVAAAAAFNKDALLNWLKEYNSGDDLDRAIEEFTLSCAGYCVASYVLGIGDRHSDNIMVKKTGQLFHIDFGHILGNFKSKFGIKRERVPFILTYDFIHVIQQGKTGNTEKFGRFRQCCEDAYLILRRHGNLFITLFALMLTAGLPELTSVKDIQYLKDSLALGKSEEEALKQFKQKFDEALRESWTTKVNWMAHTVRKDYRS
Chain of PI3Kβ (P27986 whole entry partner, canonical isoform): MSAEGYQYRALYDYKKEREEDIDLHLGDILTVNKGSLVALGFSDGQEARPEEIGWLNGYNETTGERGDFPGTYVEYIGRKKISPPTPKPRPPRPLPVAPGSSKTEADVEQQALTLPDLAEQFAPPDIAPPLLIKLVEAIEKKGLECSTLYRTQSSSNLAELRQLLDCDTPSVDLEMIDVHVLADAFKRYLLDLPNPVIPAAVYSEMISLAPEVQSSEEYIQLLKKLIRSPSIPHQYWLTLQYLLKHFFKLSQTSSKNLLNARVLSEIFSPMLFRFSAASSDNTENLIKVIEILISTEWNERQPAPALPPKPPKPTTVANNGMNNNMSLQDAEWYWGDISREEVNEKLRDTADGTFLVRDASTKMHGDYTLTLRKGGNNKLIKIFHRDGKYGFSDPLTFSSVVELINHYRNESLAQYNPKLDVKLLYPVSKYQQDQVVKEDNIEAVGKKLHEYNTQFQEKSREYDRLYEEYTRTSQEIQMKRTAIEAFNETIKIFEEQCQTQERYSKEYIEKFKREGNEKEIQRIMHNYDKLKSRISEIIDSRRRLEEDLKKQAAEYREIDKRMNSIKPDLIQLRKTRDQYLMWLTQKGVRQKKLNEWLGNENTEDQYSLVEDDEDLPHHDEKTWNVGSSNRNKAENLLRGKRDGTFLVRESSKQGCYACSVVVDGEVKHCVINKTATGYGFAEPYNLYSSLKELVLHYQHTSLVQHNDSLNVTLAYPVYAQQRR

Row | SMILES | IC50
1 | CCc1nc2c(-c3ncc[nH]3)cc(N3CCOCC3)cc2n1-c1ccnc2c(F)ccc(F)c12 (atropisomer, axis not shown) [Compound 370, 4-(1-(5,8-difluoroquinolin-4-yl)-2-ethyl-4-(1H-imidazol-2-yl)-1H-benzo[d]imidazol-6-yl)morpholine] | 0.013 µM
2 | CCc1nc2c(-c3ncc[nH]3)cc(N3CCOCC3)cc2n1-c1ccnc2c(F)ccc(F)c12 (atropisomer, axis not shown) [Compound 371, 4-(1-(5,8-difluoroquinolin-4-yl)-2-ethyl-4-(1H-imidazol-2-yl)-1H-benzo[d]imidazol-6-yl)morpholine] | 6.8 µM
3 | Cc1nc2c(-c3cnc(Cl)[nH]3)cc(N3CCOCC3)cc2n1-c1ccnc2c(F)ccc(F)c12 (atropisomer, axis not shown) [Compound 372, 4-(4-(2-chloro-1H-imidazol-5-yl)-1-(5,8-difluoroquinolin-4-yl)-2-methyl-1H-benzo[d]imidazol-6-yl)morpholine] | 0.006 µM
4 | Cc1nc2c(-c3cnc(Cl)[nH]3)cc(N3CCOCC3)cc2n1-c1ccnc2c(F)ccc(F)c12 (atropisomer, axis not shown) [Compound 373, 4-(4-(2-chloro-1H-imidazol-5-yl)-1-(5,8-difluoroquinolin-4-yl)-2-methyl-1H-benzo[d]imidazol-6-yl)morpholine] | 1 µM
5 | Cc1cnc2c(C#N)cccc2c1-n1c(C)nc2c(-c3nnc[nH]3)cc(N3CCOCC3)cc21 (atropisomer, axis not shown) [Compound 374, 3-methyl-4-(2-methyl-6-morpholino-4-(4H-1,2,4-triazol-3-yl)-1H-benzo[d]imidazol-1-yl)quinoline-8-carbonitrile] | 0.022 µM
6 | Cc1cnc2c(C#N)cccc2c1-n1c(C)nc2c(-c3nnc[nH]3)cc(N3CCOCC3)cc21 (atropisomer, axis not shown) [Compound 375, 3-methyl-4-(2-methyl-6-morpholino-4-(4H-1,2,4-triazol-3-yl)-1H-benzo[d]imidazol-1-yl)quinoline-8-carbonitrile] | 7.1 µM
7 | Cc1nc2c(-c3ncco3)cc(N3CCOCC3)cc2n1-c1ccnc2c(F)cccc12 (atropisomer, axis not shown) [Example 340, 4-[3-(8-fluoroquinolin-4-yl)-2-methyl-7-(1,3-oxazol-2-yl)benzimidazol-5-yl]morpholine] | 1.9 µM
8 | Cc1nc2c(-c3ncco3)cc(N3CCOCC3)cc2n1-c1ccnc2c(F)cccc12 (atropisomer, axis not shown) [Example 341, 4-[3-(8-fluoroquinolin-4-yl)-2-methyl-7-(1,3-oxazol-2-yl)benzimidazol-5-yl]morpholine] | 0.006 µM
9 | CCCc1nc2c(-c3nnc[nH]3)cc(N3CCOCC3)cc2n1-c1ccnc2c(Cl)cccc12 [Compound 1, 4-(1-(8-chloroquinolin-4-yl)-2-propyl-4-(4H-1,2,4-triazol-3-yl)-1H-benzo[d]imidazol-6-yl)morpholine 2,2,2-trifluoroacetate] | 0.004 µM
10 | N#Cc1ncc(-c2cc(N3CCOCC3)cc3c2ncn3-c2ccnc3c(F)ccc(F)c23)[nH]1 [Compound 394, 5-(1-(5,8-Difluoroquinolin-4-yl)-6-morpholino-1H-benzo[d]imidazol-4-yl)-1H-imidazole-2-carbonitrile] | 0.86 µM
11 | Cc1nnc(-c2cc(N3CCOCC3)cc3c2nc(CC(C)C)n3-c2ccnc3c(Cl)cccc23)[nH]1 [Example 2, 4-(1-(8-chloroquinolin-4-yl)-2-isobutyl-4-(5-methyl-4H-1,2,4-triazol-3-yl)-1H-benzo[d]imidazol-6-yl)morpholine] | 0.024 µM
12 | CCCc1nc2c(-c3nnc(C)[nH]3)cc(N3CCOCC3)cc2n1-c1ccnc2c(F)ccc(F)c12 [Example 3, 4-(1-(5,8-difluoroquinolin-4-yl)-4-(5-methyl-4H-1,2,4-triazol-3-yl)-2-propyl-1H-benzo[d]imidazol-6-yl)morpholine] | 0.024 µM
13 | CC1(c2nc3c(-c4nnc[nH]4)cc(N4CCOCC4)cc3n2-c2ccnc3c(Cl)cccc23)CC1 [Example 4, 4-(1-(8-chloroquinolin-4-yl)-2-(1-methylcyclopropyl)-4-(4H-1,2,4-triazol-3-yl)-1H-benzo[d]imidazol-6-yl)morpholine] | 0.028 µM
14 | CCc1nc2c(-c3nnc[nH]3)cc(N3CCOCC3)cc2n1-c1ccnc2c(F)ccc(Cl)c12 [Example 5, 4-(1-(5-chloro-8-fluoroquinolin-4-yl)-2-ethyl-4-(4H-1,2,4-triazol-3-yl)-1H-benzo[d]imidazol-6-yl)morpholine] | 0.029 µM
15 | c1ccc(-c2nc3c(-c4nnc[nH]4)cc(N4CCOCC4)cc3n2-c2ccnc3ccccc23)nc1 [Example 6, 4-(2-(pyridin-2-yl)-1-(quinolin-4-yl)-4-(4H-1,2,4-triazol-3-yl)-1H-benzo[d]imidazol-6-yl)morpholine] | 0.031 µM
16 | CCCc1nc2c(-c3nnc[nH]3)cc(N3CCOCC3)cc2n1-c1ccnc2cc(F)ccc12 [Example 7, 4-(1-(7-fluoroquinolin-4-yl)-2-propyl-4-(4H-1,2,4-triazol-3-yl)-1H-benzo[d]imidazol-6-yl)morpholine] | 0.031 µM
17 | Cc1nnc(-c2cc(N3CCOCC3)cc3c2nc(CC2CC2)n3-c2ccnc3c(Cl)cccc23)[nH]1 [Example 8, 4-(1-(8-chloroquinolin-4-yl)-2-(cyclopropylmethyl)-4-(5-methyl-4H-1,2,4-triazol-3-yl)-1H-benzo[d]imidazol-6-yl)morpholine] | 0.032 µM
18 | Clc1cccc2c(-n3c(C4CCOC4)nc4c(-c5nnc[nH]5)cc(N5CCOCC5)cc43)ccnc12 (stereo not drawn) [Example 9, 4-(1-(8-chloroquinolin-4-yl)-2-(tetrahydrofuran-3-yl)-4-(4H-1,2,4-triazol-3-yl)-1H-benzo[d]imidazol-6-yl)morpholine] | 0.033 µM
19 | Clc1cccc2c(-n3c(-c4cccnc4)nc4c(-c5nnc[nH]5)cc(N5CCOCC5)cc43)ccnc12 [Example 10, 4-(1-(8-chloroquinolin-4-yl)-2-(pyridin-3-yl)-4-(4H-1,2,4-triazol-3-yl)-1H-benzo[d]imidazol-6-yl)morpholine] | 0.041 µM
20 | CCCc1nc2c(-c3nnc(C)[nH]3)cc(N3CCOCC3)cc2n1-c1ccnc2c(Cl)ccc(F)c12 [Example 11, 4-(1-(8-chloro-5-fluoroquinolin-4-yl)-4-(5-methyl-4H-1,2,4-triazol-3-yl)-2-propyl-1H-benzo[d]imidazol-6-yl)morpholine] | 0.042 µM
21 | COC(C)c1nc2c(-c3nnc[nH]3)cc(N3CCOCC3)cc2n1-c1ccnc2c(Cl)cccc12 (stereo not drawn) [Example 12, 4-(1-(8-chloroquinolin-4-yl)-2-(1-methoxyethyl)-4-(4H-1,2,4-triazol-3-yl)-1H-benzo[d]imidazol-6-yl)morpholine] | 0.043 µM
22 | Cc1nnc(-c2cc(N3CCOCC3)cc3c2nc(C2CCC2)n3-c2ccnc3c(Cl)cccc23)[nH]1 [Example 13, 4-(1-(8-chloroquinolin-4-yl)-2-cyclobutyl-4-(5-methyl-4H-1,2,4-triazol-3-yl)-1H-benzo[d]imidazol-6-yl)morpholine] | 0.045 µM
23 | Cc1nnc(-c2cc(N3CCOCC3)cc3c2nc(C(C)C)n3-c2ccnc3c(Cl)cccc23)[nH]1 [Example 14, 4-(1-(8-chloroquinolin-4-yl)-2-isopropyl-4-(5-methyl-4H-1,2,4-triazol-3-yl)-1H-benzo[d]imidazol-6-yl)morpholine] | 0.049 µM
24 | Clc1cccc2c(-n3c(-c4ccncc4)nc4c(-c5nnc[nH]5)cc(N5CCOCC5)cc43)ccnc12 [Example 15, 4-(1-(8-chloroquinolin-4-yl)-2-(pyridin-4-yl)-4-(4H-1,2,4-triazol-3-yl)-1H-benzo[d]imidazol-6-yl)morpholine] | 0.049 µM
25 | Cc1nnc(-c2cc(N3CCOCC3)cc3c2nc(C2CCCO2)n3-c2ccnc3c(Cl)cccc23)[nH]1 (stereo not drawn) [Example 16, 4-(1-(8-chloroquinolin-4-yl)-4-(5-methyl-4H-1,2,4-triazol-3-yl)-2-(tetrahydrofuran-2-yl)-1H-benzo[d]imidazol-6-yl)morpholine] | 0.053 µM
26 | c1ccc2c(-n3c(C4CC4)nc4c(-c5nnc[nH]5)cc(N5CCOCC5)cc43)ccnc2c1 [Example 17, 4-(2-cyclopropyl-1-(quinolin-4-yl)-4-(4H-1,2,4-triazol-3-yl)-1H-benzo[d]imidazol-6-yl)morpholine] | 0.06 µM
27 | Cc1nnc(-c2cc(N3CCOCC3)cc3c2nc(C)n3-c2ccnc3c(Cl)cc(F)cc23)[nH]1 [Example 18, 4-(1-(8-chloro-6-fluoroquinolin-4-yl)-2-methyl-4-(5-methyl-4H-1,2,4-triazol-3-yl)-1H-benzo[d]imidazol-6-yl)morpholine] | 0.063 µM
28 | Cc1nnc(-c2cc(N3CCOCC3)cc3c2nc(C)n3-c2ccnc3ccccc23)[nH]1 [Example 19, 4-(2-methyl-4-(5-methyl-4H-1,2,4-triazol-3-yl)-1-(quinolin-4-yl)-1H-benzo[d]imidazol-6-yl)morpholine] | 0.11 µM
29 | CC(C)(C)c1nc2c(-c3nnc[nH]3)cc(N3CCOCC3)cc2n1-c1ccnc2c(Cl)cccc12 [Example 20, 4-(2-(tert-butyl)-1-(8-chloroquinolin-4-yl)-4-(4H-1,2,4-triazol-3-yl)-1H-benzo[d]imidazol-6-yl)morpholine] | 0.12 µM
30 | CCCc1nc2c(-c3nnc(C)[nH]3)cc(N3CCOCC3)cc2n1-c1ccnc2cc(F)ccc12 [Example 21, 4-(1-(7-fluoroquinolin-4-yl)-4-(5-methyl-4H-1,2,4-triazol-3-yl)-2-propyl-1H-benzo[d]imidazol-6-yl)morpholine] | 0.13 µM
